In patent US9133179B2, “2-methoxy-pyridin-4-yl-derivatives” (Actelion Pharmaceuticals Ltd., priority 2011, dated 2015):

Tests used:
[1] = target: T1, human S1P1 (EDG1) receptor (Homo sapiens, UniProt P21453); experiment: S1P1 β-arrestin recruitment (Tango) assay to determine EC50 values; type: cell-based; conditions: Tango-EDG1 bla U2OS cells, 16 h incubation
T1 construct: host or cells: U2OS (Tango EDG1-bla U2OS)
Description: S1P1 β-Arrestin Recruitment (Tango) Assay to Determine EC50 Values
Upon ligand activation, G protein-coupled receptors (GPCR) trigger two pathways that independently transduce signals to the cell: one through heterotrimeric GTP-binding proteins (G proteins) and one through β-arrestins. Agonist-induced GPCRs recruit β-arrestin proteins, which then bind to the carboxy-terminal domain of ligand-activated GPCRs. The amount of β-arrestin recruitment can be used to assess the potency and efficacy of GPCR activating ligands.
To measure the potency and efficacy of compounds as S1P1 (EDG1) receptor agonists, Tango™-EDG1 bla U2OS cells (Invitrogen, USA, Catalog #K1520) are used. The Tango™ GPCR technology is based on GeneBLAzer β-lactamase reporter cell assays, which uses a mammalian-optimized β-lactamase reporter gene (bla) combined with a FRET-enabled substrate. The host cells, U2OS, stably express a human S1P1 (EDG1) receptor/transcription factor (TF) fusion protein. The cells also express a recombinant protease tagged β-arrestin protein, which is recruited to the S1P1 receptor upon ligand stimulation and specifically cleaves the S1P1-TF fusion protein. The released TF activates the β-lactamase (bla) reporter gene. To measure the reporter gene activity, cells are loaded with a fluorescent substrate containing two chemically coupled fluorophores, coumarin and fluorescein. […] In the presence of bla, the chemical bond is cleaved and FRET is inhibited. […] The amount of β-arrestin recruitment is proportional to the increase in blue fluorescence.
Tango™-EDG1 bla U2OS cells are cultivated in McCoy's 5A containing 10% dialyzed FBS, 0.1 mM NEAA, 25 mM HEPES, 1 mM sodium pyruvate, 1% Penicillin/Streptomycin, 200 μg/ml zeocin, 50 μg/ml hygromycin and 100 μg/ml geneticin (Invitrogen, USA). Cells are detached with trypsin, resuspended in medium and then counted.
Compounds (10 mM stock in DMSO) are diluted first in DMSO. The pre-diluted compounds solutions are then transferred into Assay Medium/0.1% fatty acid free BSA to reach a fourfold concentrated compound stock, which is applied to the cells to reach the final compound concentrations that range from 10 μM to 0.0005 nM (0.5% final DMSO). Cells are then incubated for 16 h at 37° C. and 5% CO2.

circulating lymphocytes = experiment: Assessment of in vivo efficacy: circulating lymphocytes after oral administration to Wistar rats; design: species or system rat; conditions: Rattus norvegicus, Lymphocyte, normotensive male Wistar rats, compared to vehicle group, read-out: Lymphocyte counts; for change in vivo at 10 mg/kg: 6 h after oral administration of 10 mg/kg; for change in vivo at 3 mg/kg: 6 h after an oral dose of 3 mg/kg
Experimental: Assessment of In Vivo Efficacy
The efficacy of the compounds of Formula (I) is assessed by measuring the circulating lymphocytes after oral administration of 3 to 30 mg/kg of a compound of Formula (I) to normotensive male Wistar rats. The animals are housed in climate-controlled conditions with a 12 h-light/dark cycle, and have free access to normal rat chow and drinking water. […] Full blood is subjected to hematology using Advia Hematology system (Bayer Diagnostics, Zurich, Switzerland).
All data are presented as mean±SEM. Statistical analyses are performed by analysis of variance (ANOVA) using Statistica (StatSoft) and the Student-Newman-Keuls procedure for multiple comparisons. The null hypothesis is rejected when p<0.05.

T1 sequence (P21453 whole entry): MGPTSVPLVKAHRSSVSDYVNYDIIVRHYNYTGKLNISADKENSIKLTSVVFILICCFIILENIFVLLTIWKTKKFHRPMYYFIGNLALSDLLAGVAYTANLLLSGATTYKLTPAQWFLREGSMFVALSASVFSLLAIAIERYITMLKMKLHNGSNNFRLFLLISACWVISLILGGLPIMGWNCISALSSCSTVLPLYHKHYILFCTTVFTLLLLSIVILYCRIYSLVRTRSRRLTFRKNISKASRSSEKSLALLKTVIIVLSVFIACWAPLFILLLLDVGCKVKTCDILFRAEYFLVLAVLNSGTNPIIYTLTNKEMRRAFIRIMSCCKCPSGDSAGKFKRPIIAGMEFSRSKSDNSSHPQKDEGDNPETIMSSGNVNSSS

| Compound | EC50 [1] [nM] | change in vivo at 10 mg/kg (circulating lymphocytes) [%] | change in vivo at 3 mg/kg (circulating lymphocytes) [%] |
| --- | --- | --- | --- |
| CCc1cc(-c2noc(-c3cc(OC)nc(C4CCCC4)c3)n2)cc(C)c1OCCNCC(O)CO (racemic) [Example 27, rac-3-((2-(4-(5-(2-Cyclopentyl-6-methoxypyridin-4-yl)-1,2,4-oxadiazol-3-yl)-2-ethyl-6-methylphenoxy)ethyl)amino)propane-1,2-diol] | 10.3 | -42 |  |
| CCc1cc(-c2noc(-c3cc(OC)nc(C4CCCC4)c3)n2)cc(C)c1OC[C@@H](O)CN1CC(C(=O)O)C1 [Example 12, (S)-1-(3-(4-(5-(2-Cyclopentyl-6-methoxypyridin-4-yl)-1,2,4-oxadiazol-3-yl)-2-ethyl-6-methylphenoxy)-2-hydroxypropyl)azetidine-3-carboxylic acid] | 0.3 | -61 |  |
| CCc1cc(-c2noc(-c3cc(OC)nc(C4CCCC4)c3)n2)cc(C)c1OCCN1CCC(C(=O)O)C1 (racemic) [Example 8, rac-1-(2-(4-(5-(2-Cyclopentyl-6-methoxypyridin-4-yl)-1,2,4-oxadiazol-3-yl)-2-ethyl-6-methylphenoxy)ethyl)pyrrolidine-3-carboxylic acid] | 0.3 | -66 |  |
| CCc1cc(-c2noc(-c3cc(OC)nc(C4CCCC4)c3)n2)cc(C)c1OC[C@@H](O)CNCCC(=O)O [Example 10] | 0.06 | -51 |  |
| CCc1cc(-c2noc(-c3cc(OC)nc(C4CCCC4)c3)n2)cc(C)c1OCCCN(C)C(=O)CCC(=O)O [Example 34, 4-((3-(4-(5-(2-Cyclopentyl-6-methoxypyridin-4-yl)-1,2,4-oxadiazol-3-yl)-2-ethyl-6-methylphenoxy)propyl)(methyl)amino)-4-oxobutanoic acid] | 0.515 | -66 |  |
| CCc1cc(-c2nc(-c3cc(OC)nc(C4CCCC4)c3)no2)cc(C)c1OCC(=O)O [Example 53, 2-(4-(3-(2-Cyclopentyl-6-methoxypyridin-4-yl)-1,2,4-oxadiazol-5-yl)-2-ethyl-6-methylphenoxy)acetic acid] | 1.2 | -72 |  |
| CCc1cc(-c2noc(-c3cc(OC)nc(C4CCCC4)c3)n2)cc(C)c1OCCNCCCC(=O)O [Example 39, 4-((2-(4-(5-(2-Cyclopentyl-6-methoxypyridin-4-yl)-1,2,4-oxadiazol-3-yl)-2-ethyl-6-methylphenoxy)ethyl)amino)butanoic acid] | 0.1 | -66 |  |
| CCc1cc(-c2noc(-c3cc(OC)nc(C4CCCC4)c3)n2)cc(C)c1OCCCNC(=O)CC(=O)O [Example 31, 3-((3-(4-(5-(2-Cyclopentyl-6-methoxypyridin-4-yl)-1,2,4-oxadiazol-3-yl)-2-ethyl-6-methylphenoxy)propyl)amino)-3-oxopropanoic acid] | 0.0716 | -68 |  |
| CCc1cc(-c2nc(-c3cc(OC)nc(C4CCCC4)c3)no2)cc(C)c1OCCNCCC(=O)O [Example 57, 3-((2-(4-(3-(2-Cyclopentyl-6-methoxypyridin-4-yl)-1,2,4-oxadiazol-5-yl)-2-ethyl-6-methylphenoxy)ethyl)amino)propanoic acid] | 0.05 | -74 |  |
| CCc1cc(-c2noc(-c3cc(OC)nc(C4CCCC4)c3)n2)cc(C)c1OCCCN(C)C(=O)CC(=O)O [Example 33, 3-((3-(4-(5-(2-Cyclopentyl-6-methoxypyridin-4-yl)-1,2,4-oxadiazol-3-yl)-2-ethyl-6-methylphenoxy)propyl)(methyl)amino)-3-oxopropanoic acid] | 0.501 | -78 |  |
| COc1cc(-c2nc(-c3cc(C)c(OCCNCCC(=O)O)c(Cl)c3)no2)cc(C2CCCC2)n1 [Example 43, 3-((2-(2-Chloro-4-(5-(2-cyclopentyl-6-methoxypyridin-4-yl)-1,2,4-oxadiazol-3-yl)-6-methylphenoxy)ethyl)amino)propanoic acid] | 0.1 | -62 |  |
| CCc1cc(-c2nnc(-c3cc(OC)nc(C4CCCC4)c3)o2)cc(C)c1OCCN1CC(C(=O)O)C1 [Example 63, 1-(2-(4-(5-(2-Cyclopentyl-6-methoxypyridin-4-yl)-1,3,4-oxadiazol-2-yl)-2-ethyl-6-methylphenoxy)ethyl)azetidine-3-carboxylic acid] | 1.1 | -71 |  |
| COc1cc(-c2nc(-c3cc(Cl)c(OCCNCC(=O)O)c(OC)c3)no2)cc(C2CCCC2)n1 [Example 51, 2-((2-(2-Chloro-4-(5-(2-cyclopentyl-6-methoxypyridin-4-yl)-1,2,4-oxadiazol-3-yl)-6-methoxyphenoxy)ethyl)amino)acetic acid] | 0.7 |  | -22 |
| COc1cc(-c2nc(-c3cc(Cl)c(OCCN4CC(C(=O)O)C4)c(OC)c3)no2)cc(C2CCCC2)n1 [Example 52, 1-(2-(2-Chloro-4-(5-(2-cyclopentyl-6-methoxypyridin-4-yl)-1,2,4-oxadiazol-3-yl)-6-methoxyphenoxy)ethyl)azetidine-3-carboxylic acid] | 0.6 | -71 |  |
| CCc1cc(-c2noc(-c3cc(OC)nc(C4CCCC4)c3)n2)cc(C)c1OC[C@@H](O)CNCC(=O)O [Example 9, (S)-2-((3-(4-(5-(2-Cyclopentyl-6-methoxypyridin-4-yl)-1,2,4-oxadiazol-3-yl)-2-ethyl-6-methylphenoxy)-2-hydroxypropyl)amino)acetic acid] | 0.07 | -72 |  |
| CCc1cc(-c2noc(-c3cc(OC)nc(C4CCCC4)c3)n2)cc(C)c1OCCCNCC(=O)O [Example 18, 2-((3-(4-(5-(2-Cyclopentyl-6-methoxypyridin-4-yl)-1,2,4-oxadiazol-3-yl)-2-ethyl-6-methylphenoxy)propyl)amino)acetic acid] | 0.3 | -24 |  |
| CCc1cc(-c2nnc(-c3cc(OC)nc(C4CCCC4)c3)o2)cc(C)c1OCCNCCC(=O)O [Example 62, 3-((2-(4-(5-(2-Cyclopentyl-6-methoxypyridin-4-yl)-1,3,4-oxadiazol-2-yl)-2-ethyl-6-methylphenoxy)ethyl)amino)propanoic acid] | 0.2 | -63 |  |
| CCc1cc(-c2noc(-c3cc(OC)nc(C4CCCC4)c3)n2)cc(C)c1OCCCN(C)C(=O)CO [Example 30, N-(3-(4-(5-(2-Cyclopentyl-6-methoxypyridin-4-yl)-1,2,4-oxadiazol-3-yl)-2-ethyl-6-methylphenoxy)propyl)-2-hydroxy-N-methylacetamide] | 7.98 | -75 |  |
| CCc1cc(-c2noc(-c3cc(OC)nc(C4CCCC4)c3)n2)cc(C)c1OCCN(C)CC(=O)O [Example 16, 2-((2-(4-(5-(2-Cyclopentyl-6-methoxypyridin-4-yl)-1,2,4-oxadiazol-3-yl)-2-ethyl-6-methylphenoxy)ethyl)(methyl)amino)acetic acid] | 0.2 | -75 |  |
| CCc1cc(-c2noc(-c3cc(OC)nc(C4CCCC4)c3)n2)cc(C)c1OCCNC(=O)CC(=O)O [Example 49, 3-((2-(4-(5-(2-Cyclopentyl-6-methoxypyridin-4-yl)-1,2,4-oxadiazol-3-yl)-2-ethyl-6-methylphenoxy)ethyl)amino)-3-oxopropanoic acid] | 0.05 |  | -49 |
| COc1cc(-c2nc(-c3cc(C)c(OCCN4CC(C(=O)O)C4)c(Cl)c3)no2)cc(C2CCCC2)n1 [Example 44, 1-(2-(2-Chloro-4-(5-(2-cyclopentyl-6-methoxypyridin-4-yl)-1,2,4-oxadiazol-3-yl)-6-methylphenoxy)ethyl)azetidine-3-carboxylic acid] | 0.1 | -62 |  |
| CCc1cc(-c2nnc(-c3cc(OC)nc(C4CCCC4)c3)o2)cc(C)c1OCC(=O)O [Example 60, 2-(4-(5-(2-Cyclopentyl-6-methoxypyridin-4-yl)-1,3,4-oxadiazol-2-yl)-2-ethyl-6-methylphenoxy)acetic acid] | 7.2 | -35 |  |
